Laboratory results as given in ChEMBL document CHEMBL1201862, “PubChem BioAssay data set” (2004).
The source made the active and inactive calls.

Columns and labels:
[1] = molecular target: T1, Rac GTPase-activating protein 1 (Homo sapiens, UniProt Q9H0H5); assay: blockers of MgcRacGAP-driven Rac1 GTP hydrolysis – biochemical, ADP Hunter fluorescence, primary and confirmatory, confirmation (AID 624330); type: functional
T1 sequence (Q9H0H5 whole entry): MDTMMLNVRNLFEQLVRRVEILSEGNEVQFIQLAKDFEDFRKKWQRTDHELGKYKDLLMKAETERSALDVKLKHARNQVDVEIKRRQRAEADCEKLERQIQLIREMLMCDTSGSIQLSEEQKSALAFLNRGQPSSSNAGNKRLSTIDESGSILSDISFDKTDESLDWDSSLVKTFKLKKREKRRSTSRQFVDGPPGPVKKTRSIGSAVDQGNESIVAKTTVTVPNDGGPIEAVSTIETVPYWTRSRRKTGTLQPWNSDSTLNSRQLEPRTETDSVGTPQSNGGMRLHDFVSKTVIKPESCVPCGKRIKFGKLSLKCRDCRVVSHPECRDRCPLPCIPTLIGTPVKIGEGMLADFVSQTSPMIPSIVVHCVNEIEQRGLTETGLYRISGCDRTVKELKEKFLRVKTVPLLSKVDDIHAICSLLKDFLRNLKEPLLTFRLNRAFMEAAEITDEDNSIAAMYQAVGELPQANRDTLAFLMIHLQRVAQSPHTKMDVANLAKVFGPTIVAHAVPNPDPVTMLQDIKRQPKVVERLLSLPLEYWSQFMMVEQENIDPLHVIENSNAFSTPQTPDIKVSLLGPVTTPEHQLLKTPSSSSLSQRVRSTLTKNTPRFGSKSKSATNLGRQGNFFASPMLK

[2] = alpha-synuclein stem-loop luciferase translation blockers – H4 neuroglioma cells, luminescence, confirmation (AID 1988); type: functional, cell-based
[3] = Luminescence Cell-Based Dose Response HTS to Identify Inhibitors of 5'UTR Stem-Loop Driven Prion Protein mRNA Translation in H4 Neuroglioblastoma Cells. [Related pubchem assays: 1827 (Project Summary), 1813 (Primary HTS)]; type: functional
[4] = luciferase reporter signal suppression in cells – H4 neuroglioma cells, luminescence, dose response (AID 1990); type: functional, cell-based
Cytochrome P450 2C19 = Cytochrome P450 2C19 (Homo sapiens, UniProt P33261); assay: Cytochrome panel assay with activity outcomes. Panel member name: p450-cyp2c19 Compounds with AC50 equal or less than 10 uM are considered active; type: functional
Cytochrome P450 2C19, sequence (P33261 whole entry): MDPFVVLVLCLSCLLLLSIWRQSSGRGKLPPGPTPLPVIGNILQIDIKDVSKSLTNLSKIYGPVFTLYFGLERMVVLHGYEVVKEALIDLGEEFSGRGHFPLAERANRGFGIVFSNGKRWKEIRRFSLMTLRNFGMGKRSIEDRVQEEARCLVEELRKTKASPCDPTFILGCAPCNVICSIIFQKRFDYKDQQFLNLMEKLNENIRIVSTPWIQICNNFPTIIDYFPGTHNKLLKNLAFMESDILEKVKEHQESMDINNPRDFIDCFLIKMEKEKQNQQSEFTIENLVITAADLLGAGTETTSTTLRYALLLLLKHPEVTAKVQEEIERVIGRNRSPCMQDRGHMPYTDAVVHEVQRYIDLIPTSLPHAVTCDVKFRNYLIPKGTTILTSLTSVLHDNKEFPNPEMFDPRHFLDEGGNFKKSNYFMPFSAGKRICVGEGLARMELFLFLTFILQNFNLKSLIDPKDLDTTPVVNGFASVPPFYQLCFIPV

[5] = tested on: Streptococcus sp. 'group A'; assay: Streptococcus pyogenes SK(-)GAS viability under kanamycin – luminescence, BacTiterGlo, confirmation, counter-screen for streptokinase expression inhibitor project, dose response (AID 1900); type: functional, organism-based
Streptokinase A = molecular target: T2, Streptokinase A (Streptococcus pyogenes serotype M1, UniProt P10520); assay: viability-normalized secreted streptokinase activity reduction – plasminogen activation absorbance, OD405, dose response (AID 1914); type: functional, Streptococcus pyogenes M1 GAS;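 note: secreted streptokinase activity via plasminogen activation per viability signal from cell pellet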
T2 sequence (P10520 whole entry): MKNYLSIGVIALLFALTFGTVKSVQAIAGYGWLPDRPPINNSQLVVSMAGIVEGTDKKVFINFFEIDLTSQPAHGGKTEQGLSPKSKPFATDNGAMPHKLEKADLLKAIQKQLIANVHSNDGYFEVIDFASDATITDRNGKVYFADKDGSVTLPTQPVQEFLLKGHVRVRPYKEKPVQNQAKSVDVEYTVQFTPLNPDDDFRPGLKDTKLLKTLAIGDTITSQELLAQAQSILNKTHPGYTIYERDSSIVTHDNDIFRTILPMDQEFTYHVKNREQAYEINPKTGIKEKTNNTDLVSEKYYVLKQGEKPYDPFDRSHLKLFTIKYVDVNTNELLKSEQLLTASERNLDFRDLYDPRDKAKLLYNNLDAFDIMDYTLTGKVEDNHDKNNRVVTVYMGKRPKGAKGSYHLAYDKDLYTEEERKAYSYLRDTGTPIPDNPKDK

[6] = Luminescence Cell-Based Dose Retest to Confirm Inhibitors of Cancer Stem Cells. [Related pubchem assays (depositor defined):AID2717, AID2721]; type: functional; conditions: Homo sapiens
Streptococcus = assay: GAS UMAA2166 growth inhibition – luminescence, BacTiterGlo, counter-screen for streptokinase expression inhibitor project, dose response (AID 1915); type: functional, organism-based;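 note: potency for reduction of bacterial viability or growth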
Cytochrome P450 2C9 = Cytochrome P450 2C9 (Homo sapiens, UniProt P11712)
Cytochrome P450 2C9, sequence (P11712 whole entry): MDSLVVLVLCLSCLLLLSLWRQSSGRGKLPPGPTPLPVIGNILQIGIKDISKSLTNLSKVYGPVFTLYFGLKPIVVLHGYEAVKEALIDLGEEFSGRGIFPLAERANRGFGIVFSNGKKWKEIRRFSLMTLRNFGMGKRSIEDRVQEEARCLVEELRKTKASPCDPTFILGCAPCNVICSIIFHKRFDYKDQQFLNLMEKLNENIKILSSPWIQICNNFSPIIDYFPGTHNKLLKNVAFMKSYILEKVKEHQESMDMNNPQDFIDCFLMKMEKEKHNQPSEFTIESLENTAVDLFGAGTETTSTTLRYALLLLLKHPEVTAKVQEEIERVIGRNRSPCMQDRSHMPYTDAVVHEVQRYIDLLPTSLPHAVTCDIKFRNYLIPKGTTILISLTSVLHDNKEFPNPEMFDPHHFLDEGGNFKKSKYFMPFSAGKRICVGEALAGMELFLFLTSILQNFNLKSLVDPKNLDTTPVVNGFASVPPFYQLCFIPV

[7] = Trypanosoma cruzi growth suppression in host cells – NIH3T3 host cells, beta-gal luminescence, confirmation (AID 2044); type: functional, cell-based;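 note: intracellular parasites grown in NIH/3T3 mouse fibroblasts as host cells; luminescent beta-galactosidase reporter signal from transgenic T. cruzi replicating inside host cells; inhibitors lower the luminescence signal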
[8] = NIH3T3 cell viability loss – ATP luminescence, mouse fibroblasts, counter-screen, dose response (AID 2010); type: functional, cell-based;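 note: cells exposed to compound for about 90 hours before reading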
H4 = assay: Luminescence Cell-Based Dose Response HTS to Identify Activators of 5'UTR Stem-Loop Driven Prion Protein mRNA Translation in H4 Neuroglioblastoma Cells. [Related pubchem assays: 1829 (Project Summary), 1814 (Primary HTS)]; type: functional; conditions: Homo sapiens
[9] = Luminescence Cell-Based Dose Response HTS to Identify Activators of Luciferase Translation or Activity in H4 […] Cells. [Related pubchem assays: 1829 (Project Summary), 1814 (Primary HTS)]; type: functional
[10] = viability of PTEN-deleted HCT116 cells – cell-based, HCT116 PTEN knockout, dose response (AID 1047); type: functional;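 note: HCT116 colon tumor cells with PTEN knocked out; cells exposed to compound for 60 hours before readout; potency for loss of cell viability measured by luminescence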
[11] = viability of HCT116 lacking mutant beta-catenin – cell-based, human colon tumor, dose response (AID 1045); type: functional;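 note: HCT116 colon tumor cells with beta catenin knocked out; cells exposed to compound for 60 hours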

Cc1ccc(CN2CCN(Cc3ccccc3F)CC2)cc1
IC50 [1]: 76.6 µM (active)

COc1ccccc1NC(=O)CSc1nnc(COc2ccc(Cl)cc2)n1Cc1ccco1
EC50 [2]: 48 µM (active) | EC50 [3]: > 120 µM (not active) | EC50 [4]: > 120 µM (not active)

O=C(O)CC[C@@H](C(=O)O)N1C(=O)[C@@H]2[C@@H]3CC[C@H](C3)[C@@H]2C1=O
AC50 (Cytochrome P450 2C19): inconclusive

OCCCCC#Cc1c(-c2ccsc2)sc2ccccc12
EC50 [5]: 6.64 µM (active) | EC50 (Streptokinase A): > 150 µM (not active) | AC50 [6]: 3.15 µM (active) | EC50 (Streptococcus): 8.45 µM (active)

COc1cccc(Nc2ncc3nc(C)c(=O)n(CCc4ccccc4)c3n2)c1
AC50 (Cytochrome P450 2C9): 3.16 µM (inconclusive)

CCOc1ccc(-n2c([S-])c(C(=O)Nc3ccc(S(=O)(=O)N4CCOCC4)cc3)[n+]3cc(C(N)=O)ccc23)cc1
EC50 [2]: 17.5 µM (active) | EC50 [3]: > 120 µM (not active) | EC50 [4]: 24.1 µM (active)

CCOC(=O)c1c(NC(=O)c2c(N)n(CCCOC)c3nc4ccccc4nc23)sc2c1CCCC2
EC50 [7]: 2.74 µM (active) | EC50 [5]: 4.29 µM (active) | EC50 (Streptokinase A): > 150 µM (not active) | EC50 (Streptococcus): 25.1 µM (active) | EC50 [8]: > 60 µM (not active)

N#CC1=C(N)OC2=C(CCc3ccccc32)C1c1ccccc1Cl (stereo unspecified)
EC50 [5]: 4.61 µM (active) | EC50 (Streptokinase A): 11.9 µM (active) | EC50 (Streptococcus): 18.9 µM (active)

COc1cccc(CN2CCC(C(=O)N3CCC(C)CC3)CC2)c1
IC50 [1]: 162 µM (active)

C1CNCCOCCNCCN1
AC50 (Cytochrome P450 2C9): 17.8 µM (inconclusive)

NCCS(=O)(=O)NC1CCCCC1
EC50 [5]: > 150 µM (not active) | EC50 (Streptokinase A): > 150 µM (not active) | EC50 (Streptococcus): > 150 µM (not active)

CC(OC(=O)CC1CCCC1)C(=O)Nc1ccc(S(N)(=O)=O)cc1 (stereo unspecified)
EC50 [5]: > 150 µM (not active) | EC50 (Streptokinase A): > 150 µM (not active) | EC50 (Streptococcus): > 150 µM (not active)

CC(C)CNCCc1ccccn1
AC50 (Cytochrome P450 2C19): inconclusive

CCC(C)c1ccccc1NS(=O)(=O)c1cnn(CC)c1 (stereo unspecified)
EC50 [5]: > 150 µM (not active) | EC50 (Streptokinase A): > 150 µM (not active) | EC50 (Streptococcus): > 150 µM (not active)

O=S(=O)(Nc1cc(O)nc(SCc2ccccc2Cl)n1)c1ccccc1
EC50 [2]: 12.8 µM (active) | EC50 [3]: > 120 µM (not active) | EC50 [4]: > 120 µM (not active)

CCCS(=O)(=O)N1CCN(CC2CC3C=CC2C3)CC1 (stereo unspecified)
IC50 [1]: 205 µM (active)

CCCn1cnc2cc(NCc3cccs3)ccc21
EC50 (H4): 13.4 µM (active) | EC50 [9]: 11.8 µM (active)

COc1ccc(Oc2c(Cl)cnn(-c3ccc(Cl)c(Cl)c3)c2=O)cc1
EC50 [10]: 91.6 µM (active) | EC50 [2]: 8.46 µM (active) | EC50 [11]: 10.8 µM (active) | EC50 [3]: 13.4 µM (active) | EC50 [4]: 15 µM (active) | AC50 [6]: 4.57 µM (active)

O=C(c1cnn2c(C(F)(F)F)cc(-c3ccccc3)nc12)N1CCCCC1c1cccnc1 (stereo unspecified)
EC50 [7]: 0.506 µM (active) | EC50 [2]: > 120 µM (not active) | EC50 [3]: 75.7 µM (active) | EC50 [4]: > 120 µM (not active) | EC50 [8]: > 60 µM (not active)

Cc1ccc(NCCCCO)cc1C
IC50 [1]: 35.9 µM (active)

COc1cccc(-c2nc(NCCNC(C)=O)c3ccccc3n2)c1
AC50 (Cytochrome P450 2C19; read-out: AC50): 15.8 µM (inconclusive)

COc1ccc(O)c(C(=O)c2coc(=N)c(C(=O)Nc3ccc(SC(F)F)cc3)c2)c1
EC50 [5]: 40.6 µM (active) | EC50 (Streptokinase A): > 150 µM (not active) | EC50 (Streptococcus): > 150 µM (not active)

CCOC(=O)N1CCN(C(=O)c2ccc3c(c2)N(C)C(=O)/C(=C\c2ccc(OCC)c(OC)c2)S3)CC1
EC50 [5]: 0.624 µM (active) | EC50 (Streptokinase A): > 150 µM (not active) | EC50 (Streptococcus): 4.57 µM (active)

CC(C)(C)c1cc(-c2ccco2)c(C#N)c(SCC#N)n1
EC50 [2]: 15.2 µM (active) | EC50 [3]: > 120 µM (not active) | EC50 [4]: 16 µM (active)

CN(C)c1ccc(C2C=C(c3ccc(Cl)cc3OC(F)F)Nc3ncnn32)cc1 (stereo unspecified)
EC50 [5]: 9.65 µM (active) | EC50 (Streptokinase A): > 150 µM (not active) | EC50 (Streptococcus): 16.4 µM (active)

CCN1CCN(CC(=O)Nc2cc(C(F)(F)F)ccc2OCCOC)CC1
IC50 [1]: 48.5 µM (active)

Cc1cc(C)nc(NC(=O)c2cccc([N+](=O)[O-])c2C)n1
AC50 (Cytochrome P450 2C9): 11.2 µM (inconclusive)

O=C(Cc1csc(Nc2[nH]c(=S)nc3ccccc23)n1)NCCCN1CCN(c2cccc(Cl)c2)CC1
EC50 (Streptokinase A): > 150 µM (not active)

CCSc1nnc(-c2cccnc2)n1-c1ccc(C)c(Cl)c1
EC50 [2]: > 120 µM (not active) | EC50 [3]: > 120 µM (not active) | EC50 [4]: > 120 µM (not active)

CN1CCC(=C2c3ccccc3CCc3sccc32)CC1
AC50 (Cytochrome P450 2C19; read-out: AC50): 3.98 µM (inconclusive)

Cc1ccc(Oc2cc(N3CCOCC3)nc(-c3ccccc3)n2)cc1
AC50 (Cytochrome P450 2C19; read-out: AC50): 2.24 µM (inconclusive)

Cc1cccn2c(O)c(C(=O)NC3CC(C)CC(C)(C)C3)c(=O)nc12 (stereo unspecified)
EC50 [2]: 16.3 µM (active) | EC50 [3]: 2.59 µM (active) | EC50 [4]: 13.1 µM (active)

CC(C)(C)CC(C)(C)NCC(=O)Nc1c2c(nc3ccccc13)CCC2
IC50 [1]: 88.7 µM (active)

CCCCC(=O)Nc1nc(C)c(-c2csc(Nc3cc(OC)ccc3OC)n2)s1
EC50 [2]: 7.93 µM (active) | EC50 [3]: 18.2 µM (active) | EC50 [4]: 12.2 µM (active) | AC50 [6]: 1.35 µM (active)

COc1ccc(-c2nc(/C=C3\C(C)=Nc4ccccc43)c(O)o2)cc1
EC50 [5]: 3.54 µM (active) | EC50 (Streptokinase A): > 150 µM (not active) | EC50 (Streptococcus): 12.1 µM (active)

O=C(c1ccc(F)cc1)N1CCN(C2CCCCC2)CC1
IC50 [1]: 196 µM (active)

COCCn1c(=O)c(CCc2ccccc2)nc2cnc(N3CCN(C)CC3)nc21
AC50 (Cytochrome P450 2C19; read-out: AC50): 10 µM (inconclusive)

COc1cccc(CNCc2ccccc2Br)c1OC
IC50 [1]: 145 µM (active)

CCOC(=O)c1[nH]c2ccccc2c1N=C(S)Nc1cc(C)ccc1C
IC50 [1]: 77.5 µM (active)

Cn1cccc1CNC(=O)Nc1ccc(Cl)c(Cl)c1
EC50 (H4): > 120 µM (not active) | EC50 [9]: 1.66 µM (active)

O=C(NCCCN1CCCC1=O)c1ccc(CNS(=O)(=O)c2ccc(F)cc2)cc1
AC50 (Cytochrome P450 2C19; read-out: AC50): 39.8 µM (inconclusive)

C=CCn1c(SCC(=O)Nc2ccc(O)cc2)nc2sc(CC)cc2c1=O
IC50 [1]: 54.5 µM (active)

Cc1cc(-c2nnc(S)n2/N=C/c2ccc(Br)s2)[nH]n1
IC50 [1]: 91.6 µM (active)

COc1cc(/C=N/NC(=O)c2ccccc2NS(=O)(=O)c2cccs2)ccc1O
IC50 [1]: 74.5 µM (active)

CN(C)c1ccc(N/C=C/C(=O)C(C)(C)C)cc1
IC50 [1]: 7.98 µM (active)

O=C(O)Cc1sc(-c2ccc(Cl)cc2)nc1-c1ccccc1
AC50 (Cytochrome P450 2C19; read-out: AC50): 14.1 µM (inconclusive)

CC(C)=CCc1c(-c2ccc(O)cc2O)oc2cc3c(c(O)c2c1=O)C=CC(C)(C)O3 [CUDRAFLAVONE B]
EC50 [5]: 3.36 µM (active) | EC50 (Streptokinase A): > 150 µM (not active) | EC50 (Streptococcus): 4.94 µM (active)

CC(=O)NC[C@H]1CN(c2ccc(N3CCOCC3)c(F)c2)C(=O)O1 [LINEZOLID]
EC50 [5]: 0.17 µM (active) | EC50 (Streptokinase A): 6 µM (inconclusive) | EC50 (Streptococcus): 0.645 µM (active)
